Measured values reported in PubChem BioAssay AID2060910 (Molecular Pharmacology Branch, DTP, NCI, 2025).
Values joined by “and” are separate entries in the source; they are usually repeats but may differ in a detail not shown here. Equal values may be shown once. Blank lines part the entries; values can stand above or below the compound they belong to.

Test system: 242566-281-R-J2-PDC complex spheroid viability
Assay: Anticancer human tumor 242566-281-R-J2-PDC patient-derived pancreatic carcinoma cell line growth inhibition [RAS]
Conditions: for viability, T/C: stronger effect = lower value
In short: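 Multi-cell-type spheroids: tumor cells plus HUVEC endothelial cells and mesenchymal stem cells. RAS-pathway inhibitors were combined with targeted agents, each dosed in half-log steps down from clinical Cmax, or from 10 microM when Cmax was unknown.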

[1] = curve of first compound, second compound 0.0316 µM
[2] = curve of first compound, second compound 0.1 µM
[3] = curve of first compound, second compound 0.316 µM
[4] = curve of first compound, second compound 1 µM
[5] = curve of first compound, second compound 3.16 µM
[6] = curve of first compound, second compound 10 µM
[7] = second compound 0.0316 µM, first compound 0.0316 µM
[8] = second compound 0.0316 µM, first compound 0.1 µM
[9] = second compound 0.0316 µM, first compound 0.316 µM
[10] = second compound 0.0316 µM, first compound 1 µM
[11] = second compound 0.1 µM, first compound 0.0316 µM
[12] = second compound 0.1 µM, first compound 0.1 µM
[13] = second compound 0.1 µM, first compound 0.316 µM
[14] = second compound 0.1 µM, first compound 1 µM
[15] = second compound 0.316 µM, first compound 0.0316 µM
[16] = second compound 0.316 µM, first compound 0.1 µM
[17] = second compound 0.316 µM, first compound 0.316 µM
[18] = second compound 0.316 µM, first compound 1 µM
[19] = second compound 1 µM, first compound 0.0316 µM
[20] = second compound 1 µM, first compound 0.1 µM
[21] = second compound 1 µM, first compound 0.316 µM
[22] = second compound 1 µM, first compound 1 µM
[23] = second compound 3.16 µM, first compound 0.0316 µM
[24] = second compound 3.16 µM, first compound 0.1 µM
[25] = second compound 3.16 µM, first compound 0.316 µM
[26] = second compound 3.16 µM, first compound 1 µM
[27] = second compound 10 µM, first compound 0.0316 µM
[28] = second compound 10 µM, first compound 0.1 µM
[29] = second compound 10 µM, first compound 0.316 µM
[30] = second compound 10 µM, first compound 1 µM
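Further: spheroids exposed to compound for 7 days before readout.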
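Wherever viability, T/C is given: 100% = DMSO vehicle control wells.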

SMILES: CCc1c2c(nc3ccc(O)cc13)-c1cc3c(c(=O)n1C2)COC(=O)[C@]3(O)CC + CCn1c(-c2cc(N3CCN(C)CC3)cnc2C(C)OC)c2c3cc(ccc31)-c1csc(n1)CC(NC(=O)C1CC1C)C(=O)N1CCCC(N1)C(=O)OCC(C)(C)C2
- IC50 (curve of first compound, second compound 0.000949 µM): 14.5 nM
- IC50 (curve of first compound, second compound 0.003 µM): 6.76 nM
- IC50 (curve of first compound, second compound 0.00949 µM): < 0.949 nM
- IC50 (curve of first compound, second compound 0.03 µM): < 0.949 nM
- IC50 (curve of first compound, second compound 0.0949 µM): < 0.949 nM
- IC50 (curve of first compound, second compound 0.3 µM): < 0.949 nM
- viability, T/C (second compound 0.000949 µM, first compound 0.000949 µM): 101%
- viability, T/C (second compound 0.000949 µM, first compound 0.003 µM): 89%
- viability, T/C (second compound 0.000949 µM, first compound 0.00949 µM): 49.6%
- viability, T/C (second compound 0.000949 µM, first compound 0.03 µM): 40.2%
- viability, T/C (second compound 0.000949 µM, first compound 0.0949 µM): 22.3%
- viability, T/C (second compound 0.000949 µM, first compound 0.3 µM): 9.11%
- viability, T/C (second compound 0.003 µM, first compound 0.000949 µM): 92.3%
- viability, T/C (second compound 0.003 µM, first compound 0.003 µM): 62.8%
- viability, T/C (second compound 0.003 µM, first compound 0.00949 µM): 43.8%
- viability, T/C (second compound 0.003 µM, first compound 0.03 µM): 29.8%
- viability, T/C (second compound 0.003 µM, first compound 0.0949 µM): 19.4%
- viability, T/C (second compound 0.003 µM, first compound 0.3 µM): 8.62%
- viability, T/C (second compound 0.00949 µM, first compound 0.000949 µM): 48.8%
- viability, T/C (second compound 0.00949 µM, first compound 0.003 µM): 39.1%
- viability, T/C (second compound 0.00949 µM, first compound 0.00949 µM): 38.8%
- viability, T/C (second compound 0.00949 µM, first compound 0.03 µM): 24.8%
- viability, T/C (second compound 0.00949 µM, first compound 0.0949 µM): 17.9%
- viability, T/C (second compound 0.00949 µM, first compound 0.3 µM): 12.2%
- viability, T/C (second compound 0.03 µM, first compound 0.000949 µM): 33%
- viability, T/C (second compound 0.03 µM, first compound 0.003 µM): 32.8%
- viability, T/C (second compound 0.03 µM, first compound 0.00949 µM): 27%
- viability, T/C (second compound 0.03 µM, first compound 0.03 µM): 21.1%
- viability, T/C (second compound 0.03 µM, first compound 0.0949 µM): 13.9%
- viability, T/C (second compound 0.03 µM, first compound 0.3 µM): 11.9%
- viability, T/C (second compound 0.0949 µM, first compound 0.000949 µM): 22.9%
- viability, T/C (second compound 0.0949 µM, first compound 0.003 µM): 24.1%
- viability, T/C (second compound 0.0949 µM, first compound 0.00949 µM): 21.8%
- viability, T/C (second compound 0.0949 µM, first compound 0.03 µM): 15.9%
- viability, T/C (second compound 0.0949 µM, first compound 0.0949 µM): 11.2%
- viability, T/C (second compound 0.0949 µM, first compound 0.3 µM): 9.7%
- viability, T/C (second compound 0.3 µM, first compound 0.000949 µM): 22.7%
- viability, T/C (second compound 0.3 µM, first compound 0.003 µM): 20.4%
- viability, T/C (second compound 0.3 µM, first compound 0.00949 µM): 18.1%
- viability, T/C (second compound 0.3 µM, first compound 0.03 µM): 12.5%
- viability, T/C (second compound 0.3 µM, first compound 0.0949 µM): 13.3%
- viability, T/C (second compound 0.3 µM, first compound 0.3 µM): 8.58%

SMILES: C[C@@H](NC(=O)c1ncnc(N)c1Cl)c1ncc(C(=O)Nc2cc(C(F)(F)F)c(Cl)cn2)s1
- viability, T/C (compound 0.0316 µM): 116% [middle of 4 runs]
- viability, T/C (compound 0.1 µM): 114% [middle of 4 runs]
- viability, T/C (compound 0.316 µM): 110% [middle of 4 runs]
- viability, T/C (compound 1 µM): 118% [middle of 4 runs]
- viability, T/C (compound 3.16 µM): 106% [middle of 4 runs]
- IC50 (curve of compound): > 10000 nM

SMILES: CCn1c(-c2cc(N3CCN(C)CC3)cnc2C(C)OC)c2c3cc(ccc31)-c1csc(n1)CC(NC(=O)C1CC1C)C(=O)N1CCCC(N1)C(=O)OCC(C)(C)C2 (configuration not stated)
- viability, T/C (compound 0.000949 µM): 93.7% [middle of 8 runs]
- viability, T/C (compound 0.003 µM): 76.4% [middle of 8 runs]
- viability, T/C (compound 0.00949 µM): 49% [middle of 8 runs]
- viability, T/C (compound 0.03 µM): 31.3% [middle of 8 runs]
- viability, T/C (compound 0.0949 µM): 23.8% [middle of 8 runs]
- viability, T/C (compound 0.3 µM): 21.6% [middle of 8 runs]
- IC50 (compound alone, run of 07/09/2024): 9.34 nM [middle of 8 runs]

SMILES: O=C(c1ccc(F)c(F)c1Nc1ccc(I)cc1F)N1CC(O)([C@@H]2CCCCN2)C1 + C#Cc1c(F)ccc2cc(O)cc(-c3ncc4c(N5CC6CCC(C5)N6)nc(OCC56CCCN5CC(F)C6)nc4c3F)c12
- IC50 [1]: 83.3 nM
- IC50 [2]: 56 nM
- IC50 [3]: 25.2 nM
- IC50 [4]: 8.45 nM
- IC50 [5]: 4.18 nM
- IC50 [6]: < 3.16 nM
- viability, T/C (second compound 0.0316 µM, first compound 0.00316 µM): 89.3%
- viability, T/C (second compound 0.0316 µM, first compound 0.01 µM): 90.4%
- viability, T/C [7]: 69.1%
- viability, T/C [8]: 47.9%
- viability, T/C [9]: 38.6%
- viability, T/C [10]: 44.2%
- viability, T/C (second compound 0.1 µM, first compound 0.00316 µM): 76.1%
- viability, T/C (second compound 0.1 µM, first compound 0.01 µM): 73.6%
- viability, T/C [11]: 57.7%
- viability, T/C [12]: 42%
- viability, T/C [13]: 40.9%
- viability, T/C [14]: 38.5%
- viability, T/C (second compound 0.316 µM, first compound 0.00316 µM): 73%
- viability, T/C (second compound 0.316 µM, first compound 0.01 µM): 59.7%
- viability, T/C [15]: 49.9%
- viability, T/C [16]: 37.3%
- viability, T/C [17]: 32.2%
- viability, T/C [18]: 39.9%
- viability, T/C (second compound 1 µM, first compound 0.00316 µM): 60.1%
- viability, T/C (second compound 1 µM, first compound 0.01 µM): 49.5%
- viability, T/C [19]: 44.8%
- viability, T/C [20]: 30.4%
- viability, T/C [21]: 35.1%
- viability, T/C [22]: 38.6%
- viability, T/C (second compound 3.16 µM, first compound 0.00316 µM): 50.8%
- viability, T/C (second compound 3.16 µM, first compound 0.01 µM): 48.6%
- viability, T/C [23]: 34%
- viability, T/C [24]: 29.4%
- viability, T/C [25]: 34.9%
- viability, T/C [26]: 38.2%
- viability, T/C (second compound 10 µM, first compound 0.00316 µM): 52.6%
- viability, T/C (second compound 10 µM, first compound 0.01 µM): 41.3%
- viability, T/C [27]: 34.1%
- viability, T/C [28]: 37%
- viability, T/C [29]: 36.8%
- viability, T/C [30]: 37.5%

Further lines, with some results ahead:

- IC50 [1]: 608 nM
- IC50 [2]: 336 nM
- IC50 [3]: 184 nM
- IC50 [4]: 61.2 nM
- IC50 [5]: < 31.6 nM
- IC50 [6]: < 31.6 nM
SMILES: Cc1nc(N2CCC3(CC2)COC(C)C3N)c(CO)nc1Sc1ccnc(N)c1Cl (configuration not stated) + C#Cc1c(F)ccc2cc(O)cc(-c3ncc4c(N5CC6CCC(C5)N6)nc(OCC56CCCN5CC(F)C6)nc4c3F)c12
- viability, T/C [7]: 69.6%
- viability, T/C [8]: 81%
- viability, T/C [9]: 62.2%
- viability, T/C [10]: 40.9%
- viability, T/C (second compound 0.0316 µM, first compound 3.16 µM): 37.8%
- viability, T/C (second compound 0.0316 µM, first compound 10 µM): 43.5%
- viability, T/C [11]: 80.3%
- viability, T/C [12]: 65.8%
- viability, T/C [13]: 51.1%
- viability, T/C [14]: 43%
- viability, T/C (second compound 0.1 µM, first compound 3.16 µM): 34.5%
- viability, T/C (second compound 0.1 µM, first compound 10 µM): 43%
- viability, T/C [15]: 69.9%
- viability, T/C [16]: 54.3%
- viability, T/C [17]: 47.1%
- viability, T/C [18]: 38.9%
- viability, T/C (second compound 0.316 µM, first compound 3.16 µM): 37%
- viability, T/C (second compound 0.316 µM, first compound 10 µM): 36.5%
- viability, T/C [19]: 58.1%
- viability, T/C [20]: 45.8%
- viability, T/C [21]: 36.6%
- viability, T/C [22]: 34.6%
- viability, T/C (second compound 1 µM, first compound 3.16 µM): 31.2%
- viability, T/C (second compound 1 µM, first compound 10 µM): 41.1%
- viability, T/C [23]: 48.4%
- viability, T/C [24]: 49.9%
- viability, T/C [25]: 40.9%
- viability, T/C [26]: 35.1%
- viability, T/C (second compound 3.16 µM, first compound 3.16 µM): 42.8%
- viability, T/C (second compound 3.16 µM, first compound 10 µM): 44.5%
- viability, T/C [27]: 50%
- viability, T/C [28]: 46.6%
- viability, T/C [29]: 39.4%
- viability, T/C [30]: 42.9%
- viability, T/C (second compound 10 µM, first compound 3.16 µM): 41.4%
- viability, T/C (second compound 10 µM, first compound 10 µM): 38.4%

- IC50 (curve of compound): > 10000 nM and 3300 nM and 3400 nM
SMILES: NC1c2ccccc2OC12CCN(c1cnc3c(N4CCCc5ncccc54)n[nH]c3n1)CC2 (configuration not stated)
- viability, T/C (compound 1 µM): 68.9% [middle of 4 runs]
- viability, T/C (compound 10 µM): 51.8% [middle of 4 runs]
